Laboratory results reported in patent US11685734B2, “ATM kinase inhibitors and compositions and methods of use thereof” (CHDI Foundation, Inc., priority 2019, dated 2023).
pIC50: −log10 of the molar value.

Legend:
[1] = target: Recombinant, full length human FLAG-tagged ATM (Homo sapiens (Human), UniProt Q13315); experiment: ATM ELISA for p53 S15 phosphorylation; format: biochemical; details: for pIC50: 0.75 nM ATM, 25 nM p53, 10 μM ATP, 30 min at 20° C., read-out: ATM BIO IC50
Description: ATM: Recombinant, full length human FLAG-tagged ATM activity (Eurofins 14-933) was measured in an ELISA for p53 S15 phosphorylation, in a 384 well V-bottom polypropylene plate (Greiner Bio One 781280). Reactions contained 0.75 nM ATM, 25 nM full length myc tagged p53 (Eurofins 23-034), 10 μM UltraPure ATP (Promega V915B) and serial dilutions of inhibitors (0.1% DMSO final) in 25 mM HEPES, pH 7.5. 5 mM MgCl2, 2.5 mM MnCl2, 0.006% Brij-35, 0.5% glycerol, 0.1 mg/ml BSA, 0.5 mM DTT and were allowed to proceed for 30 min at 20° C. 70 mM EDTA final terminated the kinase reactions. An aliquot of the terminated reaction (25 μl) was transferred to a 384-well, high binding microplate (Greiner Bio One 781061), precoated with anti-myc capture antibody overnight (Millipore 05-724) diluted in 1:1000 in PBS, then blocked with Odyssey blocking buffer (LI-COR Biosciences 92740000) for 60 min at 20° C. The terminated reaction was allowed to capture for 2 h at 20° C. Phosphorylation was measured using an antibody specific to p53 S15 phosphorylation (1:5000 Abcam ab38497), anti-rabbit HRP (1:1000 Cell Signalling Technology, 7074) and TMB (ab171522). Antibodies were diluted in Odyssey blocking buffer and incubated for 60 min at 20° C. Three washes with PBS containing 0.05% (v/v) Tween 20 (PBS-T) were performed between each incubation. The TMB reaction was stopped with an equal volume of 0.2 M sulfuric acid and absorbance read at 450 nm on the Perkin Elmer Envision within 30 min of terminating the reaction. […] IC50 values represent the mean from at least two independent experiments.

[2] = target: cellular ATM activity (Homo sapiens (Human), UniProt Q13315); experiment: Inhibition of cellular ATM activity: etoposide-stimulated KAP1 phosphorylation in U20S cells; format: cell-based; details: 100 μM etoposide, 60 min, read-out: ATM CELL IC50
Description: Inhibition of cellular ATM activity was determined by changes in etoposide-stimulated KAP1 phosphorylation, based on the work of Guo et al. 2014.
Cryopreserved U20S cells were plated overnight at 6 k cells/well in black walled, clear bottomed 384 well plates (Greiner Bio One 781090). After overnight incubation (37 C, 5% CO2), cells were incubated with titrations of test compounds (0.3% DMSO final) in the presence of 100 μM etoposide (Sigma E1383) to stimulate ATM via induction of double stranded DNA breaks. After 60 min, cells were fixed using 100% cold methanol and incubated at −20° C. for 10 min. Fixed cells were washed with PBS containing 0.05% (v/v) Tween 20 (PBS-T) prior to a 60 minute blocking step in Odyssey blocking buffer (LI-COR Biosciences 92740000). Primary antibodies (1:1000 phosphorylated KAP1: Cell Signalling Technology 4127, 1:5000 total KAP1: Cell Signaling Technology 5868) were diluted in Odyssey blocking buffer and incubated overnight at 4° C., before addition of IRDye(R) conjugated secondary antibodies (LI-COR Biociences 926-32211, LI-COR Biosciences 926-68070) diluted 1:2000 in Odyssey blocking buffer for 60 min at room temperature and detection by LI-COR Odyssey (ImageStudio version 2.1.10, focus offset 4 mm, resolution 169 μm, lowest quality, intensities of 1 and 3 for 700 and 800 channels respectively). Immunoreactivity was quantified and the ratio of phosphorylated KAP1 calculated by dividing by the total KAP1 immunoreactivity. The percentage of inhibition was calculated for each concentration of compound using 100% (100 μM etoposide+30 μM KU-60019) and 0% effect controls (100 μM etoposide+DMSO). IC50 values represent the mean from at least two independent experiments.

Sequence of cellular ATM activity (Q13315 whole entry): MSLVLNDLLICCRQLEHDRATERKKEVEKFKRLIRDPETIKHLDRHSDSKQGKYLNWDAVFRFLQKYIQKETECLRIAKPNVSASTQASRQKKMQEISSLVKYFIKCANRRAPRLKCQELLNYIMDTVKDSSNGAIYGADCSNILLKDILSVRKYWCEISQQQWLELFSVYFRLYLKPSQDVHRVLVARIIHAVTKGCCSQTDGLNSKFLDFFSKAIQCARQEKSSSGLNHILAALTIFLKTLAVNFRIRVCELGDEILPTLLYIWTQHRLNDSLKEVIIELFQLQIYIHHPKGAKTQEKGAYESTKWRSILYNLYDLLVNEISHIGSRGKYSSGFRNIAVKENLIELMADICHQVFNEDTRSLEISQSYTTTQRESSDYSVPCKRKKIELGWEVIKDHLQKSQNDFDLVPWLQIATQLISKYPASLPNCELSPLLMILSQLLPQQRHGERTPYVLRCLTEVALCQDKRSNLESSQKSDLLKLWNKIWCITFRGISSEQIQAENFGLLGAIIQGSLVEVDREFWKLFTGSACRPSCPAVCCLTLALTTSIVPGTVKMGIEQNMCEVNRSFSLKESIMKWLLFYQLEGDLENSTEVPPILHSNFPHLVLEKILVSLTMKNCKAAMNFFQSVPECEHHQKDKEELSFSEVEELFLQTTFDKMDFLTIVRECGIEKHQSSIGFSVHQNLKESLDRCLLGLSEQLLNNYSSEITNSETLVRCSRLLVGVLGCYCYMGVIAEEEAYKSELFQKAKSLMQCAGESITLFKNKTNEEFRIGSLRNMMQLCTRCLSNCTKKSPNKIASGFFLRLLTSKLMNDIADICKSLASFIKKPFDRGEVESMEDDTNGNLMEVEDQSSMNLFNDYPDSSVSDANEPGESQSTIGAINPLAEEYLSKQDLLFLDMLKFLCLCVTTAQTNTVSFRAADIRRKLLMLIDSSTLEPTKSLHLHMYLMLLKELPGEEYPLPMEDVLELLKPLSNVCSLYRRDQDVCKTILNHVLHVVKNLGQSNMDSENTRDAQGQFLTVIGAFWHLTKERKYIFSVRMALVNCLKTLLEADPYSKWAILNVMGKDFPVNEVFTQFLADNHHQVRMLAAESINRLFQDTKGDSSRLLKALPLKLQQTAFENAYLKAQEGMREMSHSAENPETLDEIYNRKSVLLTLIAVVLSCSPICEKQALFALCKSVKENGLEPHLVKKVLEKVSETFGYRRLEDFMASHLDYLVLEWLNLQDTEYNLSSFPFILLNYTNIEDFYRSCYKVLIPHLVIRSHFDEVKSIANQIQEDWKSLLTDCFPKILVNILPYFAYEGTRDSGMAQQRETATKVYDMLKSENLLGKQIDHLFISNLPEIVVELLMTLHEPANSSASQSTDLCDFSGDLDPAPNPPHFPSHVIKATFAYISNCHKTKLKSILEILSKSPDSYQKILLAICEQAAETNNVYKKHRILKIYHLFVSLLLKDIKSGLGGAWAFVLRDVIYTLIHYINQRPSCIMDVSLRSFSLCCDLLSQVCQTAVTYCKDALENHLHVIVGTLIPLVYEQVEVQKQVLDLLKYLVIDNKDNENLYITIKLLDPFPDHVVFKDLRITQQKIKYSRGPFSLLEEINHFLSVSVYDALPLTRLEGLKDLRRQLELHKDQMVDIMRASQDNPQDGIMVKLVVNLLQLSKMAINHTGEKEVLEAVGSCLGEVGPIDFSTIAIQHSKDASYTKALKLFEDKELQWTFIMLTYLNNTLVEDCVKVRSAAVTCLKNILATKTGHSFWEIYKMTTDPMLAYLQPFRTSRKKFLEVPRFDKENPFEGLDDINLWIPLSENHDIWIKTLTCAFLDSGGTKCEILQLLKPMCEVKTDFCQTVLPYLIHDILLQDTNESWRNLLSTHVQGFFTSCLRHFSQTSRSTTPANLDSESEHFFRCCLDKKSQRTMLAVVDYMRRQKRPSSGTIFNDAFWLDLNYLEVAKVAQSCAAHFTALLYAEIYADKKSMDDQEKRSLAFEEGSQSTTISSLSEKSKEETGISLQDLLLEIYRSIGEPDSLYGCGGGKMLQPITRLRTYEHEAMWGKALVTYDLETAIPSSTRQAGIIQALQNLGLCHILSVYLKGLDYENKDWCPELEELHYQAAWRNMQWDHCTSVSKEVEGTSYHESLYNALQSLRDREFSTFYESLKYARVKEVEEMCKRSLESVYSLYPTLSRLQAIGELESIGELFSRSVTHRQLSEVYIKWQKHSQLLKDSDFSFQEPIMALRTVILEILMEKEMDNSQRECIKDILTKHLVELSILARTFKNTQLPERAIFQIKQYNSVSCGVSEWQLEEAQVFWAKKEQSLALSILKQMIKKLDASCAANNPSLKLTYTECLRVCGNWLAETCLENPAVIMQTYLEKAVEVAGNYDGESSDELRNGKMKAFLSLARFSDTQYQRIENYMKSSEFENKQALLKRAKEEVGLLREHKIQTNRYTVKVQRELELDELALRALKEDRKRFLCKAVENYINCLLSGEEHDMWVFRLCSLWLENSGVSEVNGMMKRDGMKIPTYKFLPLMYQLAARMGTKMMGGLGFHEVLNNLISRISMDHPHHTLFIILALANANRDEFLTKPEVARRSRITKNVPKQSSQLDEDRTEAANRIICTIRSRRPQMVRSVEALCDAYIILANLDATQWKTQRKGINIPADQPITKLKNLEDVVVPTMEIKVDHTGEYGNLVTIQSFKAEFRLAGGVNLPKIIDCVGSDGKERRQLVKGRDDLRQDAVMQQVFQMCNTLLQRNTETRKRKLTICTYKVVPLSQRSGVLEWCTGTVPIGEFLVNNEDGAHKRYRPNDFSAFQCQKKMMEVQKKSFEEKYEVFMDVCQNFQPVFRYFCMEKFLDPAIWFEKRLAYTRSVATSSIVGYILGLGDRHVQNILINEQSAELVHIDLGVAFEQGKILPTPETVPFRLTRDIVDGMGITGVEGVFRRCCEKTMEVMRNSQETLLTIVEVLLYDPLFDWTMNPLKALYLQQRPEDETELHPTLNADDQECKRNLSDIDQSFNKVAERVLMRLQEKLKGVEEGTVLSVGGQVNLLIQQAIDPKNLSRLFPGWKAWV
Sequence of Recombinant, full length human FLAG-tagged ATM (Q13315 whole entry): as above

| pIC50 [1] | pIC50 [2] | biological activity in the biochemical assay ([1]; qualitative statement used for stereochemical assignment) | SMILES |
| --- | --- | --- | --- |
| 7.20 | 5.64 | – | CC(c1ccccc1)C1CCCN1c1nc(N2CCOCC2)cc(=O)[nH]1 (racemic) [Example 252, 6-morpholino-2-((R*)-2-((S*)-1-phenylethyl)pyrrolidin-1-yl)pyrimidin-4(3H)-one] |
| 7.48 | 5.79 | – | CC1C[C@H](Cc2ccccc2)N(c2cc(N3CCOCC3)cc(=O)[nH]2)C1 (single isomer, unassigned) [Example 100, 6-((2R,4R*)-2-benzyl-4-methylpyrrolidin-1-yl)-4-morpholinopyridin-2(1H)-one] |
| 7.77 | 5.85 | – | CC1C[C@H](Cc2ccccc2)N(c2cc(N3CCOCC3)cc(=O)[nH]2)C1 (single isomer, unassigned) [Example 101, 6-((2R,4R*)-2-benzyl-4-methylpyrrolidin-1-yl)-4-morpholinopyridin-2(1H)-one] |
| 7.65 | 5.97 | – | CC1CCC[C@H](Cc2ccccc2)N(c2nc(N3CCOCC3)cc(=O)[nH]2)C1 (single isomer, unassigned) [Example 246] |
| 8.82 | 6.71 | – | CC1CCC[C@H](Cc2ccccc2)N(c2nc(N3CCOCC3)cc(=O)[nH]2)C1 (single isomer, unassigned) [Example 247] |
| 7.04 | 5.78 | – | CC1C[C@H](Cc2ccccc2)N(c2nc(N3CCO[C@H](C)C3)cc(=O)[nH]2)C1 (single isomer, unassigned) [Example 320] |
| 7.46 | 5.81 | – | CC1COCCN1c1cc(=O)[nH]c(N2CCCC2Cc2ccccc2)n1 (single isomer, unassigned) [Example 339, 2-(2-benzylpyrrolidin-1-yl)-6-(3-methylmorpholino)pyrimidin-4(3H)-one] |
| 7.62 | 5.81 | – | CC1OCCN(c2cc(=O)[nH]c(N3CCCC3Cc3ccccc3)n2)C1C (single isomer, unassigned) [Example 352, 2-(2-benzylpyrrolidin-1-yl)-6-(2,3-dimethylmorpholino)pyrimidin-4(3H)-one] |
| 7.44 | 5.47 | – | O=c1cc(N2CCOCC2)cc(N2CCC[C@@H]2Cc2ccccc2)[nH]1 [Example 1, (R)-6-(2-benzylpyrrolidin-1-yl)-4-morpholinopyridin-2(1H)-one] |
| – | – | lack of biological activity | O=c1cc(N2CCOCC2)cc(N2CCC[C@H]2Cc2ccccc2)[nH]1 [Example 2, (S)-6-(2-benzylpyrrolidin-1-yl)-4-morpholinopyridin-2(1H)-one] |
| 7.35 | 5.99 | – | COc1ccccc1C[C@H]1CCCN1c1cc(N2CCOCC2)cc(=O)[nH]1 [Example 7, (R)-6-(2-(2-methoxybenzyl)pyrrolidin-1-yl)-4-morpholinopyridin-2(1H)-one] |
| 7.15 | 5.35 | – | COc1ccc(C[C@H]2CCCN2c2cc(N3CCOCC3)cc(=O)[nH]2)cc1 [Example 13, (R)-6-(2-(4-methoxybenzyl)pyrrolidin-1-yl)-4-morpholino pyridin-2(1H)-one] |
| 7.05 | 5.38 | – | O=c1cc(N2CCOCC2)cc(N2CCC[C@@H]2Cc2ccc(F)cc2)[nH]1 [Example 16, (R)-6-(2-(4-fluorobenzyl)pyrrolidin-1-yl)-4-morpholino pyridin-2(1H)-one] |
| 7.27 | 5.53 | – | Cc1ccc(C[C@H]2CCCN2c2cc(N3CCOCC3)cc(=O)[nH]2)cc1 [Example 20, (R)-6-(2-(4-methylbenzyl)pyrrolidin-1-yl)-4-morpholinopyridin-2(1H)-one] |
| 7.26 | 5.57 | – | COc1cccc(C[C@H]2CCCN2c2cc(N3CCOCC3)cc(=O)[nH]2)c1 [Example 22, (R)-6-(2-(3-methoxybenzyl)pyrrolidin-1-yl)-4-morpholinopyridin-2(1H)-one] |
| 8.19 | 6.28 | – | COc1cccc(C[C@H]2CCCCCN2c2cc(N3CCOCC3)cc(=O)[nH]2)c1 [Example 23, (R)-6-(2-(3-methoxybenzyl)azepan-1-yl)-4-morpholinopyridin-2(1H)-one] |
| 7.86 | 6.28 | – | Cc1ccccc1C[C@H]1CCCCCN1c1cc(N2CCOCC2)cc(=O)[nH]1 [Example 25, (R)-6-(2-(2-methylbenzyl)azepan-1-yl)-4-morpholinopyridin-2(1H)-one] |
| 7.78 | 6.30 | – | COc1ccccc1C[C@H]1CCCCCN1c1cc(N2CCOCC2)cc(=O)[nH]1 [Example 27, (R)-6-(2-(2-methoxybenzyl)azepan-1-yl)-4-morpholinopyridin-2(1H)-one] |
| 7.49 | 6.43 | – | COc1ccc(C[C@H]2CCCCCN2c2cc(N3CCOCC3)cc(=O)[nH]2)cc1 [Example 29, 6-[(2R)-2-[(4-methoxyphenyl)methyl]azepan-1-yl]-4-morpholino-1H-pyridin-2-one] |
| 7.91 | 6.59 | – | O=c1cc(N2CCOCC2)cc(N2CCCCC[C@@H]2Cc2cccs2)[nH]1 [Example 31, 4-morpholino-6-[(2R)-2-(2-thienylmethyl)azepan-1-yl]-1H-pyridin-2-one] |
| 7.03 | 5.75 | – | O=c1cc(N2CCOCC2)cc(N2CCCCC[C@@H]2Cc2ccccn2)[nH]1 [Example 33, (R)-4-morpholino-6-(2-(pyridin-2-ylmethyl)azepan-1-yl)pyridin-2(1H)-one] |
| 8.02 | 6.53 | – | O=c1cc(N2CCOCC2)cc(N2C[C@H]3C[C@H]3[C@@H]2Cc2ccccc2)[nH]1 [Example 43, 6-((1R,2S,5S)-2-benzyl-3-azabicyclo[3.1.0]hexan-3-yl)-4-morpholinopyridin-2(1H)-one] |
| 8.08 | 6.46 | – | COc1ccccc1C[C@H]1[C@H](C)CCN1c1cc(N2CCOCC2)cc(=O)[nH]1 [Example 47, 6-((2S,3R)-2-(2-methoxybenzyl)-3-methylpyrrolidin-1-yl)-4-morpholinopyridin-2(1H)-one] |
| 7.64 | 6.01 | – | COc1cc(F)ccc1C[C@H]1CCCCCN1c1cc(N2CCOCC2)cc(=O)[nH]1 [Example 50, (R)-6-(2-(4-fluoro-2-methoxybenzyl)azepan-1-yl)-4-morpholinopyridin-2(1H)-one] |
| 7.45 | 6.08 | – | O=c1cc(N2CCOCC2)cc(N2CCCCC[C@@H]2Cc2ccc(F)cc2)[nH]1 [Example 52, (R)-6-(2-(4-fluorobenzyl)azepan-1-yl)-4-morpholino pyridin-2(1H)-one] |
| 7.74 | 6.53 | – | O=c1cc(N2CCOCC2)cc(N2CCCCC[C@@H]2Cc2cccc3c2OCC3)[nH]1 [Example 57, (R)-6-(2-((2,3-dihydrobenzofuran-7-yl)methyl)azepan-1-yl)-4-morpholinopyridin-2(1H)-one] |
| 7.39 | 5.90 | – | COc1ccccc1C[C@H]1CC(F)(F)CCCN1c1cc(N2CCOCC2)cc(=O)[nH]1 [Example 62, (S)-6-(4,4-difluoro-2-(2-methoxybenzyl)azepan-1-yl)-4-morpholinopyridin-2(1H)-one] |
| 7.37 | 6.03 | – | O=c1cc(N2CCOCC2)cc(N2CCCCC[C@@H]2Cc2ccsc2)[nH]1 [Example 64, (R)-4-morpholino-6-(2-(thiophen-3-ylmethyl)azepan-1-yl)pyridin-2(1H)-one] |
| 7.73 | 6.22 | – | COc1ccc(OC)c(C[C@H]2CCCCCN2c2cc(N3CCOCC3)cc(=O)[nH]2)c1 [Example 66] |
